Reference: patent US20250319100A1, “ANTI-TUMOR COMBINED PREPARATION COMPRISING HYDROXYPROGESTERONE CAPROATE AND USE THEREOF” (SHENZHEN EVERGREEN THERAPEUTICS CO., LTD., priority 2021, published 2025)

Legend:
[1] = tested on: CD8+ T cells in tumor tissue; experiment: Infiltration of CD8+ T cells in tumor tissue (CD8 staining of paraffin tumor sections); format: in vivo, Balb/c mice; settings: FIGS. 2 and 3, CD8 staining density IOD/area, p<0.01 OHPC group vs control group
Protocol: FIG. 2 illustrates the infiltration of CD8 T cells in mouse tumors post-administration (400× magnification). FIG. 3 presents the analysis of CD8 staining density on tumor sections after administration, represented in integrated optical density (IOD)/area, where ** denotes p<0.01 compared between the OHPC group and the control group. At the conclusion of the experiment, tumor tissue was embedded in paraffin, sectioned, and stained for CD markers. This was conducted to compare the infiltration of CD8+ T cells within tumors across different groups.

4T1-hPD-L1 cells = experiment: Tumor growth inhibition in Balb/c mice subcutaneously inoculated with 4T1 cells overexpressing human PD-L1; format: in vivo; settings: for Tumor growth inhibition (result in words): FIG. 1, tumor volume growth trend post-administration
Protocol: Antibody Anti-PD-L1 was purchased from Rongchang Biopharmaceuticals (Yantai) Co., Ltd., batch number: RC98-1-A20170426, with a storage solution concentration of 6.87 mg/ml, dissolved in 0.9% sodium chloride solution. Prior to each administration, the Anti-PD-L1 was prepared by diluting it in 0.9% sodium chloride solution to obtain a concentration of 1 mg/ml.
Hydroxyprogesterone Caproate (OHPC) was purchased from Hongyan Pharmaceutical and Chemical Co., Ltd., as a powder. Prior to each administration, OHPC powder was dissolved in DMSO. Once fully dissolved, it was diluted in sesame oil to obtain an OHPC concentration of 4 mg/ml for the investigational drug solution.
Murine breast cancer 4T1 cells were purchased from Beijing Biosynthgene Biotech Co., Ltd. Cells were cultured at 37° C. and 5% CO2 in DMEM culture medium containing 10% inactivated fetal bovine serum. The 4T1 cells were genetically modified using conventional methods to overexpress human PD-L1, and these cells were named 4T1-hPD-1.
Female Balb/c mice (6-9 weeks old, weighing 16-22 g), SPF grade, were subcutaneously inoculated with 5×10^4 cells/0.1 ml concentration of 4T1-hPD-1 cells suspended in PBS at a volume of 0.1 ml on the right side. When the average tumor volume reached approximately 100 mm3, appropriate mice were selected based on tumor volume and weight and were evenly distributed into four experimental groups, each with 8 mice. Drug administration commenced on the same day as outlined in the table below:
Throughout the observation period, tumor volume and animal weight were measured weekly, and the values were recorded. Upon completion of the observation period, the experiment was concluded.
Measurements of tumor volume were conducted twice a week post-grouping using a vernier caliper. Prior to euthanasia, tumor dimensions including the longest and shortest diameters were measured. The formula used to calculate tumor volume: Tumor Volume=0.5×Longest Diameter×Shortest Diameter^2.
Ti represents the mean tumor volume of the treatment group on day i of drug administration, TO denotes the mean tumor volume of the treatment group on day 0 of drug administration. Vi stands for the mean tumor volume of the solvent control group on day i of drug administration, and VO indicates the mean tumor volume of the solvent control group on day 0 of drug administration.
Original data from observations and measurements were recorded. Analysis and processing were based on this raw data. Results were expressed as Mean±Standard Error of Mean (SEM). Statistical analysis was performed on tumor volume data, where P<0.05 was considered statistically significant. Analysis was conducted considering both statistical and biological significance.

For `CCCCCC(=O)O[C@]1(C(C)=O)CC[C@H]2[C@@H]3CCC4=CC(=O)CC[C@]4(C)[C@H]3CC[C@@]21C` [OHPC, 17α-Hydroxyprogesterone caproate], the “Infiltration of CD8+ T cells in tumor tissue (result in words)” value [1] was “significantly enhances the infiltration of CD8+ T cells”, the “Infiltration of CD8+ T cells in tumor tissue (result in words)” value ([1]; listed as Hydroxyprogesterone Caproate (OHPC)) was “notably enhanced the infiltration of CD8+ T cells” and the “Tumor Volume Day 17” value (4T1-hPD-L1 cells; Day 17, Anti-PD-L1 10 mg/kg intravenous and/or OHPC 20 mg/kg intramuscular, twice per week, Mean ± Standard Error) was 1203 ± 384 mm^3. For the same molecule, the “TGITV (tumor growth inhibition rate by tumor volume)” value (4T1-hPD-L1 cells; Day 17 versus vehicle (PBS) control, Anti-PD-L1 10 mg/kg intravenous and/or OHPC 20 mg/kg intramuscular, twice per week) was −14%, the “Tumor growth inhibition (result in words)” value (4T1-hPD-L1 cells) was “no inhibitory effect” and the “Tumor growth inhibition (result in words)” value (4T1-hPD-L1 cells; listed as hydroxyprogesterone caproate) was “augments the anti-tumor activity of the monoclonal antibody Anti-PD-L1”. For the same molecule, the “Tumor Volume Pre-administration” value (4T1-hPD-L1 cells; baseline before first dose, Mean ± Standard Error, 8 mice per group) was 87 ± 24 mm^3.
